From ChEMBL document CHEMBL2429740, “The synthesis and SAR study of phenylalanine-derived (Z)-5-arylmethylidene rhodanines as anti-methicillin-resistant Staphylococcus aureus (MRSA) compounds” (2013)
In brackets after ≈: the same amount, converted by molar mass.

Columns and labels:
Format in all cases: functional
[1] = system: Staphylococcus aureus; assay: Antibacterial activity against methicillin-resistant Staphylococcus aureus ATCC 34404 by microdilution technique
[2] = system: Staphylococcus aureus; assay: Antibacterial activity against methicillin-resistant Staphylococcus aureus ATCC 700698 by microdilution technique
[3] = system: Staphylococcus aureus; assay: Antibacterial activity against methicillin-resistant Staphylococcus aureus CA ATCC BAA-1680 by microdilution technique
[4] = system: Staphylococcus aureus; assay: Antibacterial activity against methicillin-resistant Staphylococcus aureus ATCC BAA-39 by microdilution technique
[5] = system: Staphylococcus aureus; assay: Antibacterial activity against methicillin-resistant Staphylococcus aureus ATCC 700787 by microdilution technique
[6] = system: Staphylococcus aureus; assay: Antibacterial activity against methicillin-resistant Staphylococcus aureus ST239 HS770 by microdilution technique

Compound | MIC [1] [µg/mL] | MIC [2] [µg/mL] | MIC [3] [µg/mL] | MIC [4] [µg/mL] | MIC [5] [µg/mL] | MIC [6] [µg/mL]
O=C(O)[C@H](Cc1ccccc1)N1C(=O)/C(=C/c2ccccc2Oc2ccccc2)SC1=S | 1.95 (≈ 4.22 µM) | 1.95 (≈ 4.22 µM) | 1.95 (≈ 4.22 µM) | 3.9 (≈ 8.45 µM) | 1.95 (≈ 4.22 µM) | –
O=C(O)[C@H](Cc1ccccc1)N1C(=O)/C(=C/c2ccc(Oc3ccccc3)cc2)SC1=S | 1.95 (≈ 4.22 µM) | 1.95 (≈ 4.22 µM) | 1.95 (≈ 4.22 µM) | 3.9 (≈ 8.45 µM) | 7.8 (≈ 16.9 µM) | 7.8 (≈ 16.9 µM)
O=C(O)[C@H](Cc1ccccc1)N1C(=O)/C(=C/c2cccc(Oc3cccc(Cl)c3)c2)SC1=S | 15.6 (≈ 31.5 µM) | 15.6 (≈ 31.5 µM) | 15.6 (≈ 31.5 µM) | 15.6 (≈ 31.5 µM) | 15.6 (≈ 31.5 µM) | –
O=C(O)[C@H](Cc1ccccc1)N1C(=O)/C(=C/c2cccc(Oc3cccc(F)c3)c2)SC1=S | 15.6 (≈ 32.5 µM) | 15.6 (≈ 32.5 µM) | 31.2 (≈ 65.2 µM) | 15.6 (≈ 32.5 µM) | 31.2 (≈ 65.2 µM) | –
COc1ccc(Oc2cccc(/C=C3\SC(=S)N([C@@H](Cc4ccccc4)C(=O)O)C3=O)c2)cc1 | 7.8 (≈ 15.9 µM) | 7.8 (≈ 15.9 µM) | 15.6 (≈ 31.7 µM) | 7.8 (≈ 15.9 µM) | 7.8 (≈ 15.9 µM) | –
O=C(O)[C@H](Cc1ccccc1)N1C(=O)/C(=C/c2cccc(Oc3ccc(Cl)cc3)c2)SC1=S | 7.8 (≈ 15.7 µM) | 7.8 (≈ 15.7 µM) | 15.6 (≈ 31.5 µM) | 7.8 (≈ 15.7 µM) | 15.6 (≈ 31.5 µM) | –
O=C(O)[C@H](Cc1ccccc1)N1C(=O)/C(=C/c2cccc(Oc3ccc(F)cc3)c2)SC1=S | 7.8 (≈ 16.3 µM) | 7.8 (≈ 16.3 µM) | 7.8 (≈ 16.3 µM) | 7.8 (≈ 16.3 µM) | 7.8 (≈ 16.3 µM) | –
O=C(O)[C@H](Cc1ccccc1)N1C(=O)/C(=C/c2cccc(Cc3ccccc3)c2)SC1=S | 1.95 (≈ 4.24 µM) | 3.9 (≈ 8.49 µM) | 1.95 (≈ 4.24 µM) | 1.95 (≈ 4.24 µM) | 3.9 (≈ 8.49 µM) | –
O=C(c1ccccc1)c1cccc(/C=C2\SC(=S)N([C@@H](Cc3ccccc3)C(=O)O)C2=O)c1 | 3.9 (≈ 8.24 µM) | 7.8 (≈ 16.5 µM) | 3.9 (≈ 8.24 µM) | 3.9 (≈ 8.24 µM) | 7.8 (≈ 16.5 µM) | –
O=C(O)[C@H](Cc1ccccc1)N1C(=O)/C(=C/c2cccc(OCc3ccccc3)c2)SC1=S | 1.95 (≈ 4.1 µM) | 3.9 (≈ 8.2 µM) | 1.95 (≈ 4.1 µM) | 1.95 (≈ 4.1 µM) | 3.9 (≈ 8.2 µM) | 1.95 (≈ 4.1 µM)
O=C(O)[C@@H](Cc1ccccc1)N1C(=O)/C(=C/c2cccc(Oc3ccccc3)c2)SC1=S | 3.9 (≈ 8.45 µM) | 1.95 (≈ 4.22 µM) | 1.95 (≈ 4.22 µM) | 3.9 (≈ 8.45 µM) | 3.9 (≈ 8.45 µM) | 3.9 (≈ 8.45 µM)
O=C(O)[C@@H](Cc1ccccc1)N1C(=O)/C(=C/c2cccc(Oc3ccc(Cl)cc3)c2)SC1=S | 1.95 (≈ 3.93 µM) | 3.9 (≈ 7.86 µM) | 1.95 (≈ 3.93 µM) | 1.95 (≈ 3.93 µM) | 3.9 (≈ 7.86 µM) | 1.95 (≈ 3.93 µM)
O=C(O)[C@@H](Cc1ccccc1)N1C(=O)/C(=C/c2cccc(Oc3ccc(F)cc3)c2)SC1=S | 1.95 (≈ 4.07 µM) | 1.95 (≈ 4.07 µM) | 1.95 (≈ 4.07 µM) | 1.95 (≈ 4.07 µM) | 1.95 (≈ 4.07 µM) | 1.95 (≈ 4.07 µM)
O=C(O)[C@@H](Cc1ccccc1)N1C(=O)/C(=C/c2cccc(Oc3ccc(Cl)c(Cl)c3)c2)SC1=S | 1.95 (≈ 3.68 µM) | 1.95 (≈ 3.68 µM) | 3.9 (≈ 7.35 µM) | 1.95 (≈ 3.68 µM) | 15.6 (≈ 29.4 µM) | 3.9 (≈ 7.35 µM)
O=C(O)[C@H](Cc1ccccc1)N1C(=O)/C(=C/c2cccc(Cc3ccc(Cl)c(Cl)c3)c2)SC1=S | 31.2 (≈ 59.1 µM) | 31.2 (≈ 59.1 µM) | 31.2 (≈ 59.1 µM) | 15.6 (≈ 29.5 µM) | 62.5 (≈ 118 µM) | 15.6 (≈ 29.5 µM)
O=C(O)[C@H](Cc1ccccc1)N1C(=O)/C(=C/c2ccccc2-c2ccccc2)SC1=S | 7.8 (≈ 17.5 µM) | 15.6 (≈ 35 µM) | 7.8 (≈ 17.5 µM) | 7.8 (≈ 17.5 µM) | 15.6 (≈ 35 µM) | 7.8 (≈ 17.5 µM)
O=C(O)[C@H](Cc1ccccc1)N1C(=O)/C(=C/c2cccc(-c3ccc(Cl)c(Cl)c3)c2)SC1=S | 3.9 (≈ 7.58 µM) | 7.8 (≈ 15.2 µM) | 7.8 (≈ 15.2 µM) | 3.9 (≈ 7.58 µM) | 3.9 (≈ 7.58 µM) | 1.95 (≈ 3.79 µM)
O=C(O)[C@H](Cc1ccccc1)N1C(=O)/C(=C/c2cccc(-c3nccs3)c2)SC1=S | 15.6 (≈ 34.5 µM) | 31.2 (≈ 69 µM) | 31.2 (≈ 69 µM) | 7.8 (≈ 17.2 µM) | 31.2 (≈ 69 µM) | 3.9 (≈ 8.62 µM)
O=C(O)[C@H](Cc1ccccc1)N1C(=O)/C(=C/c2cccc(-c3cncnc3)c2)SC1=S | 125 (≈ 279 µM) | 125 (≈ 279 µM) | 125 (≈ 279 µM) | 125 (≈ 279 µM) | 125 (≈ 279 µM) | 125 (≈ 279 µM)
O=C(O)[C@H](Cc1ccccc1)N1C(=O)/C(=C/c2ccccc2OCc2ccccc2)SC1=S | 7.8 (≈ 16.4 µM) | 7.8 (≈ 16.4 µM) | 7.8 (≈ 16.4 µM) | 15.6 (≈ 32.8 µM) | 15.6 (≈ 32.8 µM) | 7.8 (≈ 16.4 µM)
O=C(O)[C@H](Cc1ccccc1)N1C(=O)/C(=C/c2ccccc2OCCc2ccccc2)SC1=S | 15.6 (≈ 31.9 µM) | 7.8 (≈ 15.9 µM) | 7.8 (≈ 15.9 µM) | 15.6 (≈ 31.9 µM) | 15.6 (≈ 31.9 µM) | 15.6 (≈ 31.9 µM)
O=C(O)[C@H](Cc1ccccc1)N1C(=O)/C(=C/c2cccc(OCCc3ccccc3)c2)SC1=S | 31.2 (≈ 63.8 µM) | 31.2 (≈ 63.8 µM) | 15.6 (≈ 31.9 µM) | 31.2 (≈ 63.8 µM) | 31.2 (≈ 63.8 µM) | 15.6 (≈ 31.9 µM)
O=C(O)[C@H](Cc1ccccc1)N1C(=O)/C(=C/c2ccccc2Oc2ccc(Cl)c(Cl)c2)SC1=S | 3.9 (≈ 7.35 µM) | 7.8 (≈ 14.7 µM) | 3.9 (≈ 7.35 µM) | 3.9 (≈ 7.35 µM) | 3.9 (≈ 7.35 µM) | 1.95 (≈ 3.68 µM)
O=C(O)[C@H](Cc1ccccc1)N1C(=O)/C(=C/c2ccccc2Cc2ccccc2)SC1=S | 15.6 (≈ 33.9 µM) | 7.8 (≈ 17 µM) | 3.9 (≈ 8.49 µM) | 7.8 (≈ 17 µM) | 7.8 (≈ 17 µM) | 15.6 (≈ 33.9 µM)
O=C(O)[C@H](Cc1ccccc1)N1C(=O)/C(=C/c2cccc(OCC3CC3)c2)SC1=S | 15.6 (≈ 35.5 µM) | 15.6 (≈ 35.5 µM) | 15.6 (≈ 35.5 µM) | 15.6 (≈ 35.5 µM) | 15.6 (≈ 35.5 µM) | 15.6 (≈ 35.5 µM)
O=C(O)c1cn(C2CC2)c2cc(N3CCNCC3)c(F)cc2c1=O [CIPROFLOXACIN] | ≤ 0.48 | – | – | – | 62.5 (≈ 189 µM) | 62.5 (≈ 189 µM)
CC1(C)S[C@@H]2[C@H](NC(=O)Cc3ccccc3)C(=O)N2[C@H]1C(=O)O [PENICILLIN G] | 31.2 (≈ 93.5 µM) | 15.6 (≈ 46.7 µM) | 125 (≈ 374 µM) | 62.5 (≈ 187 µM) | 62.5 (≈ 187 µM) | 250 (≈ 748 µM)
CN[C@H](CC(C)C)C(=O)N[C@H]1C(=O)N[C@@H](CC(N)=O)C(=O)N[C@H]2C(=O)N[C@H]3C(=O)N[C@H](C(=O)N[C@H](C(=O)O)c4cc(O)cc(O)c4-c4cc3ccc4O)[C@H](O)c3ccc(c(Cl)c3)Oc3cc2cc(c3O[C@@H]2O[C@H](CO)[C@@H](O)[C@H](O)[C@H]2O[C@H]2C[C@](C)(N)[C@H](O)[C@H](C)O2)Oc2ccc(cc2Cl)[C@H]1O [VANCOMYCIN] | ≤ 0.48 | ≤ 0.48 | ≤ 0.48 | ≤ 0.48 | 1.95 (≈ 1.35 µM) | ≤ 0.48
